{"source": "patent US11786460B2", "about": "“Pharmaceutical dry powder composition for inhalation comprising a thyroid hormone” (priority 2018, dated 2023)", "origin": "cited, not measured here", "key": {"[1]": {"tested_on": "Calu-3 cells", "details": "in vitro"}, "[2]": {"details": "mainly in the jejunum and ileum"}}, "data": [{"compound": "N[C@@H](Cc1cc(I)c(Oc2cc(I)c(O)c(I)c2)c(I)c1)C(=O)O", "note": "[levothyroxine]", "values": [{"measurement": "absorption from the respiratory mucosa (permeability)", "setting": "[1]", "value": "can be absorbed effectively from the respiratory mucosa"}, {"measurement": "fraction absorbed after oral administration", "setting": "[2]", "value": "60-80%"}]}]}
